The source of these data is patent publication US11590139B2, “Substituted aminopurine compounds, compositions thereof, and methods of treatment therewith” (Signal Pharmaceuticals, LLC, priority 2014, dated 2023).

SMILES strings stand for the structures.

The test system of the first assay is Lox-IMVI melanoma cell line. The assay is described as follows: Lox-IMVI anti-proliferative assay (growth inhibition, Cell Titer-Glo). The assay is classed as cell-based, human. The settings on record: Homo sapiens; IC50 activity level in the cell-based Lox-IMVI anti-proliferative assay; read-out: Activity. In a few lines: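 Growth inhibition is assessed over 72 h in RPMI + 10% FBS at 0.2% DMSO, with ATP-based luminescence used as the viability measure. IC50 is fitted from normalized dose-response data.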
As to `Cc1cc(Cl)c(Nc2nc3cnc(NC4CCOCC4)nc3n2[C@H]2CC[C@@H](C(N)=O)CC2)cc1C` [Example 101, (1s,4s)-4-(8-(2-chloro-4,5-dimethylphenylamino)-2-(tetrahydro-2H-pyran-4-ylamino)-9H-purin-9-yl)cyclohexanecarboxamide], the IC50 was over 1000 nM.

For `NC(=O)[C@H]1CC[C@@H](n2c(Nc3ccc(F)c(F)c3F)nc3cnc(N[C@@H]4CCC[C@H](O)C4)nc32)CC1` [Example 364, (1S,4s)-4-(2-((1R,3S)-3-hydroxycyclohexylamino)-8-(2,3,4-trifluorophenylamino)-9H-purin-9-yl)cyclohexanecarboxamide], the IC50 was over 1000 nM.

Regarding `CC(C)(C)OC(=O)N1CCC[C@@H](Nc2ncc3nc(Nc4c(Cl)cccc4Cl)n([C@H]4CC[C@@H](C(N)=O)CC4)c3n2)C1` [Example 160, (R)-tert-butyl 3-(9-((1s,4S)-4-carbamoylcyclohexyl)-8-(2,6-dichlorophenylamino)-9H-purin-2-ylamino)piperidine-1-carboxylate], the IC50 is over 1000 nM.

With `CS(=O)(=O)N1CCC(Nc2ncc3nc(Nc4c(F)cc(F)cc4Cl)n([C@H]4CC[C@@H](C(N)=O)CC4)c3n2)CC1` [Example 294, (1s,4s)-4-(8-(2-chloro-4,6-difluorophenylamino)-2-(1-(methylsulfonyl)piperidin-4-ylamino)-9H-purin-9-yl)cyclohexanecarboxamide], the IC50 was over 1000 nM.

With `NC(=O)[C@H]1CC[C@@H](n2c(Nc3c(Cl)cc(OC(F)(F)F)cc3Cl)nc3cnc(NC4CCOCC4)nc32)CC1` [Example 365, (1s,4s)-4-(8-(2,6-dichloro-4-(trifluoromethoxy)phenylamino)-2-(tetrahydro-2H-pyran-4-ylamino)-9H-purin-9-yl)cyclohexanecarboxamide], the IC50 is under 250 nM.

As for `NC(=O)[C@H]1CC[C@@H](n2c(Nc3c(F)cccc3Cl)nc3cnc(NC4CCN(c5cccnc5)CC4)nc32)CC1` [Example 107, (1s,4s)-4-(8-(2-chloro-6-fluorophenylamino)-2-(1-(pyridin-3-yl)piperidin-4-ylamino)-9H-purin-9-yl)cyclohexanecarboxamide], the IC50 was over 1000 nM.

Consider `NC(=O)[C@H]1CC[C@@H](n2c(Nc3cccc(Cl)c3F)nc3cnc(NC4COCC4O)nc32)CC1` (some centres unmarked) [Example 192, (1s,4s)-4-(8-(3-chloro-2-fluorophenylamino)-2-(4-hydroxytetrahydrofuran-3-ylamino)-9H-purin-9-yl)cyclohexanecarboxamide], for which the IC50 is over 1000 nM.

With `NC(=O)[C@H]1CC[C@@H](n2c(Nc3c(Cl)cc(Cl)cc3Cl)nc3cnc(NC4COCC4O)nc32)CC1` (some centres unmarked) [Example 181, (1s,4s)-4-(2-(4-hydroxytetrahydrofuran-3-ylamino)-8-(2,4,6-trichlorophenylamino)-9H-purin-9-yl)cyclohexanecarboxamide], the IC50 lay in the range of 500 to 1000 nM.

As for `CC[C@H](C)Nc1ncc2nc(Nc3c(Cl)cccc3Cl)n([C@H]3CC[C@@H](C(N)=O)CC3)c2n1` [Example 336, (1R,4s)-4-(2-(sec-butylamino)-8-(2,6-dichlorophenylamino)-9H-purin-9-yl)cyclohexanecarboxamide], the IC50 was over 1000 nM.

Regarding `NC(=O)[C@H]1CC[C@@H](n2c(Nc3c(Cl)cc(F)cc3Cl)nc3cnc(N[C@H]4CCC[C@@H](O)C4)nc32)CC1` [Example 374, (1R,4s)-4-(8-(2,6-dichloro-4-fluorophenylamino)-2-((1S,3R)-3-hydroxycyclohexylamino)-9H-purin-9-yl)cyclohexanecarboxamide], the IC50 was over 1000 nM.

Consider `C[C@@H](CO)Nc1ncc2nc(Nc3c(F)cc(Cl)cc3Cl)n([C@H]3CC[C@@H](C(N)=O)CC3)c2n1` [Example 135, (1R,4s)-4-(8-(2,4-dichloro-6-fluorophenylamino)-2-((S)-1-hydroxypropan-2-ylamino)-9H-purin-9-yl)cyclohexanecarboxamide], for which the IC50 is under 250 nM.

For the compound `NC(=O)[C@H]1CC[C@@H](n2c(Nc3c(F)cccc3F)nc3cnc(N[C@@H]4CCC[C@H]4O)nc32)CC1` [Example 251, (1S,4s)-4-(8-(2,6-difluorophenylamino)-2-((1R,2R)-2-hydroxycyclopentylamino)-9H-purin-9-yl)cyclohexanecarboxamide], the IC50 is over 1000 nM.

The same assay, now with this note: Homo sapiens; Lox-IMVI anti-proliferative assay, IC50 activity level; read-out: Activity.
As to `N#Cc1cc(Cl)c(Nc2nc3cnc(NC4CC(F)(F)C4)nc3n2[C@H]2CC[C@@H](C(N)=O)CC2)c(Cl)c1` [Example 399, (1s,4s)-4-(8-(2,6-dichloro-4-cyanophenylamino)-2-(3,3-difluorocyclobutylamino)-9H-purin-9-yl)cyclohexanecarboxamide], the IC50 fell in the range of 250 to 500 nM.

With `C[C@]1(C(N)=O)CC[C@@H](n2c(Nc3c(F)cc(C#N)cc3Cl)nc3cnc(NC4CCOCC4)nc32)CC1` [Example 525, (1s,4s)-4-(8-(2-chloro-4-cyano-6-fluorophenylamino)-2-(tetrahydro-2H-pyran-4-ylamino)-9H-purin-9-yl)-1-methylcyclohexanecarboxamide], the IC50 is under 250 nM.

As for `NC(=O)[C@H]1CC[C@@H](n2c(Nc3c(F)cccc3Cl)nc3cnc(N[C@@H]4CCCC[C@H](O)C4)nc32)CC1` [Example 436, (1S,4s)-4-(8-(2-chloro-6-fluorophenylamino)-2-((1R,3S)-3-hydroxycycloheptylamino)-9H-purin-9-yl)cyclohexanecarboxamide], the IC50 is over 1000 nM.

With `C[C@]1(C(N)=O)CC[C@H](n2c(Nc3c(Cl)cc(F)cc3Cl)nc3cnc(NC4CCC(F)(F)CC4)nc32)CC1` [Example 476, (1r,4r)-4-(8-(2,6-dichloro-4-fluorophenylamino)-2-(4,4-difluorocyclohexylamino)-9H-purin-9-yl)-1-methylcyclohexanecarboxamide], the IC50 is over 1000 nM.

The assay is the same for the next values; noted with them: Homo sapiens; Lox-IMVI melanoma cell line, anti-proliferative assay; read-out: Activity (IC50 activity level).
Turning to `CS(=O)(=O)C1CC(Nc2ncc3nc(Nc4c(F)cc(Cl)cc4F)n([C@H]4CC[C@@H](C(N)=O)CC4)c3n2)C1` (some centres unmarked) [Example 736, (1s,4s)-4-(8-(4-chloro-2,6-difluorophenylamino)-2-(3-(methylsulfonyl)cyclobutylamino)-9H-purin-9-yl)cyclohexanecarboxamide], the IC50 was over 1000 nM.

Take `CS(=O)(=O)N1CCC[C@@H](Nc2ncc3nc(Nc4c(Cl)cc(C#N)cc4Cl)n([C@H]4CC[C@@H](C(N)=O)CC4)c3n2)C1` [Example 702, (1S,4s)-4-(8-(2,6-dichloro-4-cyanophenylamino)-2-((R)-1-(methylsulfonyl)piperidin-3-ylamino)-9H-purin-9-yl)cyclohexanecarboxamide]: the IC50 was over 1000 nM.

Take `N#Cc1cc(Cl)c(Nc2nc3cnc(N[C@@H]4CCC[C@@H](O)C4)nc3n2[C@H]2CC[C@@H](C(N)=O)CC2)c(Cl)c1` [Example 684, (1S,4s)-4-(8-(2,6-dichloro-4-cyanophenylamino)-2-((1R,3R)-3-hydroxycyclohexylamino)-9H-purin-9-yl)cyclohexanecarboxamide]: the IC50 fell in the range of 500 to 1000 nM.

Take `C[C@@H]1COCC[C@H]1Nc1ncc2nc(Nc3c(F)cc(F)cc3Cl)n([C@H]3CC[C@@](C)(C(N)=O)CC3)c2n1` [Example 725, (1S,4s)-4-(8-(2-chloro-4,6-difluorophenylamino)-2-((3S,4R)-3-methyltetrahydro-2H-pyran-4-ylamino)-9H-purin-9-yl)-1-methylcyclohexanecarboxamide]: the IC50 is under 250 nM.
